Experimental data taken from patent US20030022909A1, “Use of methylnaltrexone to treat immune suppression” (University of Chicago, priority 2001, published 2003).
Read-outs that look alike come from different tables or passages of the source.

Legend:
[1] = system: blood lymphocyte responses; details: cited from earlier work
[2] = system: immune system effects of systemic morphine; details: rats, cited from earlier work
[3] = cited from earlier work
[4] = white crystalline powder as provided; cited from earlier work
natural killer cells = assay: Animal study: number of natural killer cells in mice after treatment; type: in vivo; details: ten mice per group
[5] = microinjection into the third ventricle

| Compound | analgesic responses [1, 5] | inhibition of blood lymphocyte responses [1, 5] | plasma corticosterone concentration [1, 5] | effect on lymphocyte proliferation, plasma corticosterone concentrations or analgesic responses ([1]; systemic administration) | antagonism of immune system effects of systemic morphine injection ([2]; administered intracerebroventricularly) | antagonism of immune system effects of systemic morphine injection ([2]; administered subcutaneously) | overt side effects ([3]; intravenous 0.45 mg/kg, volunteers) | half-life ([3]; intravenous compound) | solubility in water [4] | number of natural killer cells present after treatment compared to Group 1 (control) (natural killer cells; Group 3: methylnaltrexone and morphine) | number of natural killer cells present after treatment compared to Group 1 (control) (natural killer cells; Group 2: placebo and morphine) |
| --- | --- | --- | --- | --- | --- | --- | --- | --- | --- | --- | --- |
| C[N+]1(C)CC[C@]23c4c5ccc(O)c4O[C@H]2[C@@H](O)C=C[C@H]3[C@@H]1C5 [N-methylmorphine] | maximal analgesic responses were present | 70% | significantly elevated | did not effect | – | – | – | – | – | – | – |
| C[N@+]1(CC2CC2)CC[C@]23c4c5ccc(O)c4O[C@H]2C(=O)CC[C@@]3(O)[C@H]1C5 [methylnaltrexone, N-cyclopropylmethylnoroxymorphine-methobromide] | – | – | – | – | antagonize most of the immune system effects | failed to do so | not associated with any overt side effects | less than two | freely soluble in water | comparable number of natural killer cells to Group 1 | – |
| CN1CC[C@]23c4c5ccc(O)c4O[C@H]2[C@@H](O)C=C[C@H]3[C@H]1C5 [morphine] | maximal analgesic responses were present | 70% | – | – | – | – | – | – | – | – | significant decrease in the number of natural killer cells |
